Test results: patent US11633414B2, “Nicotinoyl riboside compositions and methods of use” (Cornell University, priority 2005, dated 2023)
“Also recorded” adds a separate entry of the source. Like-named read-outs stand apart in the source and are kept apart here.

Assays:
[1] = system: Mouse embryonic stem cells; assay: Cell survival after mms treatment and passage with/without NAR (haemocytometry); format: cell-based; conditions: mms 1 mM 3 hrs, NAR 1 mM, counted after two days
Description: Mms (200 mM) was added to both flask #A and #B to make final concentration as 1 mM. After 3 hrs incubation, each cell culture (with/without NR treated) is passed to two new flasks with/without 1 mM of NAR. After two days incubation, count the culture survival in each of these 4 new flasks: mms/control media, mms/NAR media; mms+NAR/control media; mms+NAR/NAR media. It was found after mms treatment, the cultured cells are seriously damaged and only have a very low survival after passage. […] Cell counting by haemocytometry was used to determine survival versus cell number (see FIG. 4).

[2] = system: Mouse embryonic stem cells; assay: Effects of statins on cell viability and mitigation of toxicity by nicotinamide riboside (cell counting and MTT assay); conditions: for IC50: read-out: IC50 for statins in the absence of NR, apparently 7 days
[3] = system: Mouse embryonic stem cells; assay: Effect of NAR on mms mediated cell death (trypan blue counting); format: cell-based; conditions: media supplemented with NAR 1 mM, mms 1 mM (FIG. 2)
Description: 1000 units/mL], named from #1 to #7. […] Mms (200 mM) was added to flask #2, 3, 4, 5, 6, 7 to make final concentration as 1 mM. Cell flask #1 is kept as a control, and used for passage. After 3 hrs incubation, fresh media was changed for flask #4, 5, 6, 7. And Cell #2, and 3 are harvested. After 6 hrs treatment of mms, Cell #4, 5 are harvested. And Cell #6, 7 are harvested at 9 hrs treatment of mms. The harvest cells (living ones) are counted for the percentage of death with trypan blue (see FIG. 2).

[4] = system: Mouse embryonic stem cells; assay: Increase of cellular NAD+ levels in cells grown on nicotinamide riboside (NAR) enriched medium; format: cell-based
Description: Mouse embryonic stem cells were plated onto cell culture flasks (250 mL, 75 cm^2) and grown to 50% confluence in 48 hours after passage. At 48 hours 2 flasks were set aside as controls and 2 flasks were used to determine effect of NAR on NAD+ biosynthesis. Cells were treated with 1M HClO4, and a specific amount of 180-NAM ([…]) and ^18O-NAD+. Samples were fractionated by HPLC and the fractions containing NAM and NAD+ were analyzed by ESI-MS and MALDI-MS respectively. Peak ratio (^16O/^18O) was used to quantitate NAM and NAD+ amounts in each sample. […] According to our measurement, the NAD+ level in NAR treated cells is 3886.6 pmoL/mg cell protein and nucleic acid content, and the NAD+ in control cells is only 1782.2 pmoL/mg cell protein and nucleic acid content. Cell protein and nucleic acid content were measured separately (see FIG. 3).

Hela cells = assay: NAD+ content in cells after treatment with nicotinate riboside derivatives (HPLC, MALDI-MS with 18O-NAD+ standard); format: cell-based; conditions: for 16O-NAD+ / [NAD+]/10^6 cell: 24 hrs; for [NAD+]/10^6 cell: control 618
Description: Synthesized compounds (NAR: Nicotinic acid riboside, O-ethyl-NR: ethyl-nicotinate riboside, Intermediate: TAENR, triacetyl-ethyl-nicotinate riboside, See FIG. 10) were added to the cells separately after 24 hours (no compound added for control). The cells were then incubated for another 24 hrs before harvest. Cells were trypsinized and an aliquot removed for counting. […] After mixing thoroughly, samples were pelleted and then neutralized with NaOH to make pH=7˜8. Samples were then centrifuged for 3 minutes and the supernatant (100 uL) was injected onto a C-18 column (Hitachi HPLC L2130 pump L2450 diode array detector) and separated to isolate the peak containing NAD+. The elution was collected during the NAD+ peak and the solution frozen and lyophilized.

[5] = format: physicochemical
Description: The synthesis of nicotinoyl riboside compounds was initiated with the preparation of a preferred intermediate, ethyl 1-[3,4-diacetyloxy-5-(acetyloxymethyl)oxolan-2-yl]-pyridine-3-carboxylate. Nicotinic acid riboside O-alkyl derivatives were prepared from there. Refluxing of the protected sugar, 1,2,3,5-tetra-O-acetyl-β-D-ribofuranose with ethyl nicotinate (1.2 equiv.) in methylene chloride under the catalysis of TMSOTf (1 equiv.) stereoselectively formed β-isomer in good yield (>90%). One of the advantages for this method is that there is no need to go through the silylation of nicotinamide. After evaporation of the solvent, ethyl 1-[3,4-diacetyloxy-5-(acetyloxymethyl)oxolan-2-yl]-pyridine-3-carboxylate could be used directly for the next step. […] Extraction of ethyl acetate from water layer could get rid of most non-polar side products and give 95% of pure products according to TLC. Ethyl 1-[3,4-diacetyloxy-5-(acetyloxymethyl)oxolan-2-yl]-pyridine-3-carboxylate was also treated with NaOCH3/MeOH at −20° C. to form O-methyl nicotinate riboside. Other O-alkyl nicotinate ribosides were prepared similarly. O-Alkyl nicotinate ribosides can be hydrolyzed with esterase (from porcine liver, sigma) at pH=7.0 to afford clean nicotinic acid riboside. Reverse HPLC was used to detect and purify products.

Structure (SMILES): NC(=O)c1ccc[n+]([C@@H]2O[C@H](CO)C(O)C2O)c1 (stereo partly drawn) [NAR, β-nicotinamide riboside]
- culture survival after passage [1]: highest culture numbers
- mitigation of statin toxicity ([2]; NR 500 μM in cell media, lovastatin, 2, 4 and 7 days, listed as NR): significantly reduces the toxicity of statin; also recorded: mitigates statin toxicity in a significant way
- increase of IC50 of the statin in the presence of NR ([2]; NR 500 μM, after 4 and 7 days treatment): two to three
- cell viability in the NR treated group versus no NR ([2]; cell counting and MTT assay, at virtually every statin concentration): significantly higher
- viable cells at the highest statin concentration ([2]; statin 10 μM, NR treated group, cell counting and MTT assay): significant percentages of viable cells remain
- cell survival [3]: improvement of cell survival
- NAD+ level ([4]; NAR treated cells, control cells 1782.2): 3886.6 pmoL/mg cell protein and nucleic acid content
- NAD+ concentration compared to the controls ([4]; NAR treated embryonic stem cells vs controls): higher concentration of NAD+; also recorded: increase of intracellular levels of nicotinamide adenine dinucleotide (NAD+)

Structure (SMILES): NC(=O)c1ccc[n+]([C@@H]2O[C@H](CO)[C@@H](O)[C@H]2O)c1 [NAR, β-nicotinamide riboside]
- 16O-NAD+ (Hela cells; 669 uM): 2201.2 pmol
- [NAD+]/10^6 cell (Hela cells; 669 uM): 1079 pmoL
- water solubility [5]: extremely water-soluble

Structure (SMILES): CCOC(=O)c1ccc[n+]([C@@H]2O[C@H](CO)[C@@H](O)[C@H]2O)c1 [O-ethyl NR, O-ethyl β-nicotinic riboside]
- 16O-NAD+ (Hela cells; 500 uM): 1084.1 pmol
- [NAD+]/10^6 cell (Hela cells; 500 uM): 1004 pmoL
- 16O-NAD+ (Hela cells; 803 uM): 2622.7 pmol
- [NAD+]/10^6 cell (Hela cells; 803 uM): 2242 pmoL
- increase over the control NAD+ content (Hela cells; 500 micromolar): 62%
- NAD+ concentration in cells (Hela cells; 500 micromolar, untreated cells 618): 1004 μmol per million cells
- increase in NAD+ concentration (Hela cells; 800 micromolar): approximately three

Structure (SMILES): CCOC(=O)c1ccc[n+]([C@@H]2O[C@H](COC(C)=O)C(OC(C)=O)[C@@H]2OC(C)=O)c1 (stereo partly shown) [TAENR, ethyl 1-[3,4-diacetyloxy-5-(acetyloxymethyl)oxolan-2-yl]-pyridine-3-carboxylate]
- 16O-NAD+ (Hela cells; 750 uM): 4432.2 pmol
- [NAD+]/10^6 cell (Hela cells; 750 uM): 2052 pmoL
- increase of NAD+ concentrations in cells (Hela cells; concentration of Table 3 (750 uM)): three

Structure (SMILES): O=C(O)c1ccc[n+]([C@@H]2O[C@H](CO)C(O)C2O)c1 (stereo partly drawn) [nicotinic acid riboside, β-Nicotinic acid riboside]
- increase of NAD+ concentrations in cells (Hela cells; concentrations of Table 3): 60%

Structure (SMILES): CC[C@H](C)C(=O)O[C@H]1C[C@@H](C)C=C2C=C[C@H](C)[C@H](CC[C@@H]3C[C@@H](O)CC(=O)O3)[C@H]21 [statin, lovastatin, reference compound]
- IC50 ([2]; determined by MTT assay): 216 nM
- IC50 ([2]; determined by cell counting): 248 nM
- cell viability at the highest statin concentration ([2]; statin 10 μM, no NR group): almost completely non-viable
